In one data set the test system is TK6 cells. The data set can be described thus: MTT assay of cell growth in TK6 cells. The class given is cell-based, human. As to conditions: read-out: IC50 on cell growth. For orientation: Tetrazolium assays rely on reduction of a dye to a coloured formazan, in cell work by metabolically active cells.
Data set [1] has as its system TK6/SULT vector cells. As to conditions: 45 µM.
The target in data set [2] is T1, SULT1C4 (Homo sapiens, UniProt O75897). Kind of data set: Sulfonation by cytosol of HEK293/SULT1C4-overexpressing cells. Conditions: SULT1C4 cytosol; 1 h at 37 °C; mean ± s.d., three experiments.
T1 sequence (O75897 whole entry): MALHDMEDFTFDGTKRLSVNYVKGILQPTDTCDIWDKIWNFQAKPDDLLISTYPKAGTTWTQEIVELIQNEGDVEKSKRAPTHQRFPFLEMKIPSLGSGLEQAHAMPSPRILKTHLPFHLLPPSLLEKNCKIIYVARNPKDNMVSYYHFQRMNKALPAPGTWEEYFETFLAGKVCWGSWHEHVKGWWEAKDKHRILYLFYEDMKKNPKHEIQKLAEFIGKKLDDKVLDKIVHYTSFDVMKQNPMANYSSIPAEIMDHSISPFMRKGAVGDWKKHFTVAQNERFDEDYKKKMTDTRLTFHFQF
Data set [3] addresses T2, SULT1A1 (Homo sapiens, UniProt P50225). Kind of data set: Sulfonation by cytosol of HEK293/SULT1A1-overexpressing cells. Conditions: SULT1A1 cytosol; 1 h at 37 °C; mean ± s.d., three experiments.
Data set [4] in a line: Sulfonation activity of pooled human liver cytosols. As to conditions: Human liver cytosol; 1 h at 37 °C; mean ± s.d., three experiments.
Data set [5] has as its system TK6/SULT2A1 cells. Conditions: 90 µM.
In data set [6] the test system is TK6/SULT vector cells. The data set can be described thus: MTT assay of cell growth in TK6/SULT vector cells. As to conditions: for IC50: read-out: IC50 on cell growth.
Data set [7] has as its target T1, SULT1C4.
In data set [8] the target is T3, SULT1E1 (Homo sapiens, UniProt P49888).
T3 sequence (P49888 1-294): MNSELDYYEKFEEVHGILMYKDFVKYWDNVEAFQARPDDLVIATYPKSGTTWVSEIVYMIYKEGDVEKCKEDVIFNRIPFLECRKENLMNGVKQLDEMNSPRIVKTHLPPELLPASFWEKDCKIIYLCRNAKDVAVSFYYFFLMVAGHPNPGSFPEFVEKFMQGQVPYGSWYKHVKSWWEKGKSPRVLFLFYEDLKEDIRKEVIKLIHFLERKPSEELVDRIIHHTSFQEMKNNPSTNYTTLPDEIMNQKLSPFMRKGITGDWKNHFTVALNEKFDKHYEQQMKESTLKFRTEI

Data set [9] has as its target T3, SULT1E1. Kind of data set: Sulfonation by cytosol of HEK293/SULT1E1-overexpressing cells. Conditions: SULT1E1 cytosol; 1 h at 37 °C; mean ± s.d., three experiments.
Data set [10] has as its system TK6/SULT2A1 cells. The data set can be described thus: MTT assay of cell growth in TK6/SULT2A1 cells. As to conditions: for IC50: read-out: IC50 on cell growth.
Data set [11] deals with T4, SULT2A1 (Homo sapiens, UniProt Q06520).
T4 sequence (Q06520 1-285): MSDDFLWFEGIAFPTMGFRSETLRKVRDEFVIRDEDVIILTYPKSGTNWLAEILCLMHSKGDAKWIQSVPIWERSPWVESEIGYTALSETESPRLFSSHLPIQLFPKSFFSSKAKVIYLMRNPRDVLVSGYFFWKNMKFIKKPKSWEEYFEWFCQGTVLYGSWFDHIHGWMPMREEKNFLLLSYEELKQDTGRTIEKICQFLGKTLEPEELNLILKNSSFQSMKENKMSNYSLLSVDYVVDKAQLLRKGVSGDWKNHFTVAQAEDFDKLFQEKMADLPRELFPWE

Data set [12] concerns TK6/SULT vector cells. It is filed as cell-based, human.
Data set [13] deals with T2, SULT1A1.
Data set [14] in a line: Stability of 12-sulfoxynevirapine in buffer by reversed-phase HPLC. The class given is physicochemical. Conditions: up to 2 months.
The subject of data set [15] is human hepatoma HepG2 cells. As to conditions: 48 h exposure, ref [30]; cited from earlier work.
For data set [16], the system named is immortalized normal liver THLE2 cells. As to conditions: 48 h exposure, ref [30]; cited from earlier work.
Data set [17] addresses T3, SULT1E1. The data set can be described thus: Inhibition of SULT1E1-catalyzed sulfonation of triclosan. As to conditions: 10 μM pentachlorophenol, preliminary experiments. It is filed as biochemical.
Data set [18] addresses T4, SULT2A1. The data set can be described thus: Inhibition of SULT2A1-catalyzed sulfonation of triclosan. It is filed as biochemical. As to conditions: 10 μM pentachlorophenol, preliminary experiments.
The target in a further data set is SULT1C2 (Homo sapiens, UniProt O00338). The data set can be described thus: Sulfonation by cytosol of HEK293/SULT1C2-overexpressing cells. The class given is in vitro ADME. Conditions: 250 μM [14C]triclosan, 0.5 mg cytosolic protein, 500 μM PAPS, pH 7.2, 37 °C, 2 h.
Chain of SULT1C2 (O00338 whole entry): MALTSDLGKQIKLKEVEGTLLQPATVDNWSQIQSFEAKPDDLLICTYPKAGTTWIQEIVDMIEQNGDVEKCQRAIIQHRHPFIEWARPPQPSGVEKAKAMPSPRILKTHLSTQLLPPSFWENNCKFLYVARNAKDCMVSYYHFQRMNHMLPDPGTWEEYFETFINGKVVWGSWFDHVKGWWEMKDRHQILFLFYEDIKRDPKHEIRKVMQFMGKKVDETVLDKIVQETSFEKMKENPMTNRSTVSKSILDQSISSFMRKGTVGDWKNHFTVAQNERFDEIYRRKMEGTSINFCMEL
The target of the next data set is T5, SULT2B1 (Homo sapiens, UniProt O00204).
T5 sequence (O00204 1-365): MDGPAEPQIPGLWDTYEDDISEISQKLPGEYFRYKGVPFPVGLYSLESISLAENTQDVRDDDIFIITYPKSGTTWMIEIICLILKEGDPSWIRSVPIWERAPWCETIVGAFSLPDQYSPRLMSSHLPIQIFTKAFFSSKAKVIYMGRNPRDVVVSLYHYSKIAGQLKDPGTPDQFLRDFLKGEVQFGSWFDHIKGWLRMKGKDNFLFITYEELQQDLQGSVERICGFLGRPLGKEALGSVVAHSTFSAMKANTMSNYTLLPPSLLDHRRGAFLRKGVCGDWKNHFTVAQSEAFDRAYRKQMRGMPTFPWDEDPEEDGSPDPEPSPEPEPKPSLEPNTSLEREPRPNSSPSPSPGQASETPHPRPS
Kind of data set: Sulfonation by cytosol of HEK293/SULT2B1-overexpressing cells. The class given is in vitro ADME. Conditions: 250 μM [14C]triclosan, 0.5 mg cytosolic protein, 500 μM PAPS, pH 7.2, 37 °C, 2 h.

Another data set addresses T6, SULT6B1 (Homo sapiens, UniProt Q6IMI4).
T6 sequence (Q6IMI4 1-303): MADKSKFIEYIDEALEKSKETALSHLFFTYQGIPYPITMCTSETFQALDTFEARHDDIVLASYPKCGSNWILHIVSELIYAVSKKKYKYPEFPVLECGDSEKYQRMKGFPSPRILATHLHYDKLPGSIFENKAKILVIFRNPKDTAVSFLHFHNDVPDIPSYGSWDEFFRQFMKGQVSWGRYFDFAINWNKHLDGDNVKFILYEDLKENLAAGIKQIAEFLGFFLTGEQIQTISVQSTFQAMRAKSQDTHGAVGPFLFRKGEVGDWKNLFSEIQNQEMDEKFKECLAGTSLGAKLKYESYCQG
The data set can be described thus: Sulfonation by cytosol of HEK293/SULT6B1-overexpressing cells. It is filed as in vitro ADME. As to conditions: 250 μM [14C]triclosan, 0.5 mg cytosolic protein, 500 μM PAPS, pH 7.2, 37 °C, 2 h.

For data set [19], the target named is T7, cytosols from TK6/SULT2A1 cells (Homo sapiens, UniProt Q06520).
T7 sequence (Q06520 1-285): T4 sequence (Q06520 1-285)
The data set can be described thus: Sulfonation of triclosan by cytosols from TK6/SULT2A1 cells. It is filed as in vitro ADME. Conditions: not in TK6 and TK6/SULT vector cytosols.

The next data set deals with T8, SULT4A1 (Homo sapiens, UniProt Q9BR01).
T8 sequence (Q9BR01 1-284): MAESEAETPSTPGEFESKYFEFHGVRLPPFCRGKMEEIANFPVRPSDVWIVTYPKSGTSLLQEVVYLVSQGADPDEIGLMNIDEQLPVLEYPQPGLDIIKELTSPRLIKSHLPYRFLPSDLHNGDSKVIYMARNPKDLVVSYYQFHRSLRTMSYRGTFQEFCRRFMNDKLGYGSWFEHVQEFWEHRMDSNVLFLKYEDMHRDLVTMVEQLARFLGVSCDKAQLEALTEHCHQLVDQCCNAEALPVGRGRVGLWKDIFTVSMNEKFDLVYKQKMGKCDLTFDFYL
Kind of data set: Sulfonation by cytosol of HEK293/SULT4A1-overexpressing cells. It is filed as in vitro ADME. Conditions: 250 μM [14C]triclosan, 0.5 mg cytosolic protein, 500 μM PAPS, pH 7.2, 37 °C, 2 h.

The structures appear in SMILES notation. Where two headings read alike, the source gives them in different places.

T2 sequence (P50225 whole entry): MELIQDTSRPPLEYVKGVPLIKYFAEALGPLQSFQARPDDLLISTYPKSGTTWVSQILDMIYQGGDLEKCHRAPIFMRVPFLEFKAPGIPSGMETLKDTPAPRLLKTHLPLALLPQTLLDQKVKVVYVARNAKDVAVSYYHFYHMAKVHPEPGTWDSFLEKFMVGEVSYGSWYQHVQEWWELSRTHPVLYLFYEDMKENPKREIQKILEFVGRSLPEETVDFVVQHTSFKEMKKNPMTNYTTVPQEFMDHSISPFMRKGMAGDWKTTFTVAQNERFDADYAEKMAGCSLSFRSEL

A word on the IC50: it is the midpoint of a concentration-inhibition curve. A word on the Km: it is the concentration of substrate that gives half-maximal velocity. As to `O=C1Nc2c(CO)ccnc2N(C2CC2)c2ncccc21` [12-Hydroxynevirapine], the IC50 came out at 42.6 µM with TK6 cells (TK6 cells, 48 h exposure, MTT assay); 45.1 µM in the data set on TK6/SULT vector cells [6] (TK6/SULT vector cells, 48 h exposure, MTT assay); 89.9 µM in the data set with TK6/SULT2A1 cells [10] (TK6/SULT2A1 cells, 48 h exposure, MTT assay). The Cell viability entry with TK6/SULT vector cells [1] and in the data set on TK6/SULT2A1 cells [5] was “approximately 50%” throughout. The Vmax is reported as 56.0 ± 2.2 pmol min^−1 cytosolic protein mg^−1 at SULT1C4 [2], 71.2 ± 2.0 pmol min^−1 cytosolic protein mg^−1 at SULT1A1 [3], 71.0 ± 4.5 pmol min^−1 cytosolic protein mg^−1 in [4] and 71.0 ± 2.8 pmol min^−1 cytosolic protein mg^−1 on SULT1E1 [9]. In addition, the Km on SULT1C4 [7] is 260 ± 38.9 µM; at SULT1E1 [8] it was 216 ± 34 µM; on SULT2A1 [11] it was 545 ± 68.5 µM; on SULT1A1 [13] it was 787 ± 62.2 µM. In addition, the “Formation of 12-sulfoxynevirapine in treated cells” value in the data set with TK6/SULT vector cells [12] is “not detected”.
On to `O=C1Nc2c(COS(=O)(=O)O)ccnc2N(C2CC2)c2ncccc21` [12-Sulfoxynevirapine], for which the Stability in buffer entry was “stable” in data set [14] (50 mM Bis-Tris, pH 7.1, room temperature) and “stable” in [14] (100 mM sodium phosphate, pH 7.2, room temperature).
As to `Cc1ccnc2c1NC(=O)c1cccnc1N2C1CC1` [Nevirapine, 11-cyclopropyl-5,11-dihydro-4-methyl-6H-dipyrido [3,2-b:2′,3′-e][1, 4]diazepin-6-one], the IC50 was about 130 µM in the data set on TK6 cells (Homo sapiens, TK6, 48 h); about 130 µM in the data set on TK6/SULT vector cells [6] (Homo sapiens, 48 h); about 130 µM with TK6/SULT2A1 cells [10] (Homo sapiens, 48 h). Further, the “Concentration that inhibited cell growth” value in data set [15] and in [16] was “approximately 1.0 mM” throughout.
With `Oc1c(Cl)c(Cl)c(Cl)c(Cl)c1Cl` [Pentachlorophenol, pentachlorophenol], the figures for the “Triclosan being sulfated in the presence of inhibitor” value at SULT1E1 [17] and on SULT2A1 [18] were 44% and 12%, respectively. Moreover, the “Cytotoxicity of the SULT substrate alone” value in the data set on TK6/SULT vector cells [6] (TK6/SULT vector cells, tested concentration (DHEA 5 μM, pentachlorophenol 10 μM), 48 h, MTT) was “not cytotoxic”; in the data set on TK6/SULT2A1 cells [10] (TK6/SULT2A1 cells, tested concentration (DHEA 5 μM, pentachlorophenol 10 μM), 48 h, MTT) it was “not cytotoxic”.
Consider `Oc1cc(Cl)ccc1Oc1ccc(Cl)cc1Cl` [Triclosan, triclosan], for which the Sulfonation of triclosan on SULT1C2 is recorded as 28.5 ± 0.2 pmol min^−1 mg cytosolic protein^−1; on SULT2B1 it was 46.6 ± 1.9 pmol min^−1 mg cytosolic protein^−1; on SULT6B1 it was 33.8 ± 1.0 pmol min^−1 mg cytosolic protein^−1; at SULT4A1 it was 50.4 ± 0.6 pmol min^−1 mg cytosolic protein^−1. Besides, the “Sulfonation activity towards triclosan” value in data set [19] was “showed sulfonation activity”.

The values are drawn from PMC12434715 (Biochemical pharmacology, 2018).
